Reference: paper PMC9504018, “The hEag1 K^+ Channel Inhibitor Astemizole Stimulates Ca^2+ Deposition in SaOS-2 and MG-63 Osteosarcoma Cultures” (International Journal of Molecular Sciences, 2022)

Target: T1, hEag1 (Kv10.1) (Homo sapiens, UniProt O95259)
T1 construct: gene KCNH1
T1 sequence (O95259 1-989): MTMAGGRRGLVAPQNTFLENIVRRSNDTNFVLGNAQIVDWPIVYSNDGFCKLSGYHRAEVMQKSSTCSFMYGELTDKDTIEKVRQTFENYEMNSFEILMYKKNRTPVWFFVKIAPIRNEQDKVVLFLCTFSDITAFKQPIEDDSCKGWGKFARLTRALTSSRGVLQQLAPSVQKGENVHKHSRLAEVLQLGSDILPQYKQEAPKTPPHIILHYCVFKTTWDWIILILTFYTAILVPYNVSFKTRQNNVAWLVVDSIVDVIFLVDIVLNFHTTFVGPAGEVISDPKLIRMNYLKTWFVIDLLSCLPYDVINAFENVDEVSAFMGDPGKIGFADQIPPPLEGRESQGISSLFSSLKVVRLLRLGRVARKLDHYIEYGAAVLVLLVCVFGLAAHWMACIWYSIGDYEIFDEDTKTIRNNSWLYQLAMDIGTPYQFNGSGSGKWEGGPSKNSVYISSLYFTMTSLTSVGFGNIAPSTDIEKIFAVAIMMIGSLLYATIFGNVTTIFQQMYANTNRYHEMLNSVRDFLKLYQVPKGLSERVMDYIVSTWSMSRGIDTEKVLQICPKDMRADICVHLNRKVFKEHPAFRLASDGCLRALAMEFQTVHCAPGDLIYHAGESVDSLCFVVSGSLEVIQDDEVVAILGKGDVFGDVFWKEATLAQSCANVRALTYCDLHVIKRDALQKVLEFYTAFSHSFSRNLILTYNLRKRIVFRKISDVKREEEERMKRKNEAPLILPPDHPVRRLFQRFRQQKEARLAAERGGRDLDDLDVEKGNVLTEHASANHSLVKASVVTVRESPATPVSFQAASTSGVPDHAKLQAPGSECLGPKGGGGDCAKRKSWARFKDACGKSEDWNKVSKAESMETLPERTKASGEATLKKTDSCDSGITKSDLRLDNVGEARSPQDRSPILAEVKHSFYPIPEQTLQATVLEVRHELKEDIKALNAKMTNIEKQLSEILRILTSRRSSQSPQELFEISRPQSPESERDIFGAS
Assay: whole-cell patch clamp of the endogenous current in SaOS-2 cells, six-dose concentration-response
Type: cell-based

COc1ccc(CCN2CCC(Nc3nc4ccccc4n3Cc3ccc(F)cc3)CC2)cc1 [astemizole] gave an IC50 of about 0.135 µM.
